Measurements taken from BindingDB's records for doi:10.1016/s0960-894x(99)00659-9 (Kyoto Pharmaceutical University, 2000).
pIC50: −log10 of the molar value.

Assay: Inhibitory activity against porcine pancreatic elastase (PPE)

| pIC50 | SMILES |
| --- | --- |
| 4.43 | O=C(CCc1cccc(C(F)(F)F)c1)N[C@@H](Cc1ccccc1)C(=O)CCl [N-((S)-1-Benzyl-3-chloro-2-oxo-propyl)-3-(3-trifluoromethyl-phenyl)-propionamide] |
| 3.62 | O=C(CCc1ccc(F)cc1)N[C@@H](Cc1ccccc1)C(=O)CCl [N-((S)-1-Benzyl-3-chloro-2-oxo-propyl)-3-(4-fluoro-phenyl)-propionamide] |
| < 3.00 | O=C(CCc1ccc(O)cc1)N[C@@H](Cc1ccccc1)C(=O)CCl [N-((S)-1-Benzyl-3-chloro-2-oxo-propyl)-3-(4-hydroxy-phenyl)-propionamide] |
| 4.82 | CC(C)c1ccc(CCC(=O)N[C@@H](Cc2ccccc2)C(=O)CCl)cc1 [N-((S)-1-Benzyl-3-chloro-2-oxo-propyl)-3-(4-isopropyl-phenyl)-propionamide] |
| 4.89 | O=C(CCc1ccc(C(F)(F)F)cc1)N[C@@H](Cc1ccccc1)C(=O)CCl [N-((S)-1-Benzyl-3-chloro-2-oxo-propyl)-3-(4-trifluoromethyl-phenyl)-propionamide] |
| 4.05 | Cc1ccc(CCC(=O)N[C@@H](Cc2ccccc2)C(=O)CCl)cc1 [N-((S)-1-Benzyl-3-chloro-2-oxo-propyl)-3-p-tolyl-propionamide] |

Second part, the molecule before the results:

| SMILES | pIC50 |
| --- | --- |
| O=C(CCc1cccc(Cl)c1Cl)N[C@@H](Cc1ccccc1)C(=O)CCl [N-((S)-1-Benzyl-3-chloro-2-oxo-propyl)-3-(2,3-dichloro-phenyl)-propionamide] | 4.49 |
| COc1ccccc1CCC(=O)N[C@@H](Cc1ccccc1)C(=O)CCl [N-((S)-1-Benzyl-3-chloro-2-oxo-propyl)-3-(2-methoxy-phenyl)-propionamide] | 4.07 |
| O=C(CCc1cccc(F)c1)N[C@@H](Cc1ccccc1)C(=O)CCl [N-((S)-1-Benzyl-3-chloro-2-oxo-propyl)-3-(3-fluoro-phenyl)-propionamide] | 3.55 |
| O=C(CCc1cccc(O)c1)N[C@@H](Cc1ccccc1)C(=O)CCl [N-((S)-1-Benzyl-3-chloro-2-oxo-propyl)-3-(3-hydroxy-phenyl)-propionamide] | < 3.00 |
| COc1cccc(CCC(=O)N[C@@H](Cc2ccccc2)C(=O)CCl)c1 [N-((S)-1-Benzyl-3-chloro-2-oxo-propyl)-3-(3-methoxy-phenyl)-propionamide] | 3.22 |
| Cc1cccc(CCC(=O)N[C@@H](Cc2ccccc2)C(=O)CCl)c1 [N-((S)-1-Benzyl-3-chloro-2-oxo-propyl)-3-m-tolyl-propionamide] | 3.89 |
| O=C(/C=C/c1ccccc1)N[C@@H](Cc1ccccc1)C(=O)CCl [N-((S)-1-Benzyl-3-chloro-2-oxo-propyl)-3-phenyl-acrylamide] | 4.59 |
| O=C(CCc1ccccc1)N[C@@H](Cc1ccccc1)C(=O)CCl [N-((S)-1-Benzyl-3-chloro-2-oxo-propyl)-3-phenyl-propionamide] | 3.82 |
